Measured values: ChEMBL document CHEMBL3885861, “Open TG-GATES”

Organism: Rattus norvegicus
Experiment: Open TG-GATES - Regimen: Single
Assay type: toxicity, organism-based, Sprague-Dawley
Set-up: regimen Single, gender Male, age 6 weeks
Conditions: in vivo, po, 10 mg/kg, route gavage, dose level Low; for APTT / Bas / Eos / Fbg / Hb / Ht / Lym / MCH / MCHC / MCV / Mono / Neu / PT / Plat / RBC / Ret / WBC: tissue Blood; for KIDNEY_L / KIDNEY_R / KIDNEY_TOTAL: tissue Kidney; for LIVER: tissue Liver; for A/G / ALP / ALT / AST / BUN / CRE / Ca / Cl / DBIL / GLC / IP / K / LDH / Na / PL / RALB / TBIL / TC / TG / TP / gamma-GTP: tissue Plasma

**Q.** Which results are given for `OCCOCCN1CCN(C(c2ccccc2)c2ccc(Cl)cc2)CC1` (configuration not stated) [HYDROXYZINE]?
**A.** TERMINAL_BW (3 h): 192.7 g; APTT (3 h): 15.4 s; Bas (3 h): 0.4%; Eos (3 h): 0.6%; Fbg (3 h): 276.8 mg/dL; Hb (3 h): 12.7 g/dL; Ht (3 h): 39.3%; Lym (3 h): 80.6%; MCH (3 h): 21.7 pg; MCHC (3 h): 32.3%; MCV (3 h): 67 fL; Mono (3 h): 2.6%; Neu (3 h): 15.2%; PT (3 h): 15.1 s; Plat (3 h): 113 x10_4/uL; RBC (3 h): 587.8 x10_4/ul; Ret (3 h): 9.1%; WBC (3 h): 89.2 x10_2/uL; KIDNEY_L (3 h): 0.8 g; KIDNEY_R (3 h): 0.9 g; KIDNEY_TOTAL (3 h): 1.7 g; LIVER (3 h): 9 g; A/G (3 h): 0.8; ALP (3 h): 1362.6 IU/L; ALT (3 h): 43.4 IU/L; AST (3 h): 75.6 IU/L; BUN (3 h): 11.2 mg/dL; CRE (3 h): 0.2 mg/dL; Ca (3 h): 11.1 mg/dL; Cl (3 h): 105.2 meq/L; DBIL (3 h): 0.016 mg/dL; GLC (3 h): 176.6 mg/dL; IP (3 h): 9.4 mg/dL; K (3 h): 4.4 meq/L; LDH (3 h): 80.4 IU/L; Na (3 h): 141.6 meq/L; PL (3 h): 137.2 mg/dL; RALB (3 h): 2.4 g/dL; TBIL (3 h): 0.064 mg/dL; TC (3 h): 74.6 mg/dL; TG (3 h): 46.2 mg/dL; TP (3 h): 5.3 g/dL; gamma-GTP (3 h): 1 IU/L; TERMINAL_BW (6 h): 193.5 g; APTT (6 h): 15.7 s; Bas (6 h): 0%; Eos (6 h): 0.8%; Fbg (6 h): 285.2 mg/dL; Hb (6 h): 12.8 g/dL; Ht (6 h): 40.3%; Lym (6 h): 75.8%; MCH (6 h): 21.3 pg; MCHC (6 h): 31.8%; MCV (6 h): 67.1 fL; Mono (6 h): 2.6%; Neu (6 h): 20.2%; PT (6 h): 15.2 s; Plat (6 h): 114.7 x10_4/uL; RBC (6 h): 601.2 x10_4/ul; Ret (6 h): 9.2%; WBC (6 h): 77.4 x10_2/uL; KIDNEY_L (6 h): 0.9 g; KIDNEY_R (6 h): 0.9 g; KIDNEY_TOTAL (6 h): 1.7 g; LIVER (6 h): 8.1 g; A/G (6 h): 0.9; ALP (6 h): 1554.6 IU/L; ALT (6 h): 46.8 IU/L; AST (6 h): 83.2 IU/L; BUN (6 h): 9 mg/dL; CRE (6 h): 0.2 mg/dL; Ca (6 h): 10.9 mg/dL; Cl (6 h): 106.2 meq/L; DBIL (6 h): 0.006 mg/dL; GLC (6 h): 175.2 mg/dL; IP (6 h): 10.1 mg/dL; K (6 h): 4.3 meq/L; LDH (6 h): 80.2 IU/L; Na (6 h): 142.8 meq/L; PL (6 h): 139.4 mg/dL; RALB (6 h): 2.5 g/dL; TBIL (6 h): 0.062 mg/dL; TC (6 h): 78.8 mg/dL; TG (6 h): 32.4 mg/dL; TP (6 h): 5.3 g/dL; gamma-GTP (6 h): 0.8 IU/L; TERMINAL_BW (9 h): 190.5 g; APTT (9 h): 16.2 s; Bas (9 h): 0%; Eos (9 h): 0.4%; Fbg (9 h): 288.8 mg/dL; Hb (9 h): 12.8 g/dL; Ht (9 h): 39.6%; Lym (9 h): 71.2%; MCH (9 h): 21.3 pg; MCHC (9 h): 32.3%; MCV (9 h): 65.7 fL; Mono (9 h): 3%; Neu (9 h): 24%; PT (9 h): 15.2 s; Plat (9 h): 118.3 x10_4/uL; RBC (9 h): 601.8 x10_4/ul; Ret (9 h): 8.2%; WBC (9 h): 63.8 x10_2/uL; KIDNEY_L (9 h): 0.9 g; KIDNEY_R (9 h): 0.8 g; KIDNEY_TOTAL (9 h): 1.7 g; LIVER (9 h): 7.9 g; A/G (9 h): 0.8; ALP (9 h): 1271.4 IU/L; ALT (9 h): 37.4 IU/L; AST (9 h): 70.2 IU/L; BUN (9 h): 9.2 mg/dL; CRE (9 h): 0.2 mg/dL; Ca (9 h): 10.7 mg/dL; Cl (9 h): 106.8 meq/L; DBIL (9 h): 0.012 mg/dL; GLC (9 h): 184.6 mg/dL; IP (9 h): 10.2 mg/dL; K (9 h): 4.1 meq/L; LDH (9 h): 78.8 IU/L; Na (9 h): 142.4 meq/L; PL (9 h): 139.4 mg/dL; RALB (9 h): 2.5 g/dL; TBIL (9 h): 0.062 mg/dL; TC (9 h): 81.4 mg/dL; TG (9 h): 29.4 mg/dL; TP (9 h): 5.5 g/dL; gamma-GTP (9 h): 1 IU/L; TERMINAL_BW (24 h): 210.3 g; APTT (24 h): 15 s; Bas (24 h): 0%; Eos (24 h): 1%; Fbg (24 h): 276.8 mg/dL; Hb (24 h): 12.7 g/dL; Ht (24 h): 39.6%; Lym (24 h): 73.4%; MCH (24 h): 21.9 pg; MCHC (24 h): 32%; MCV (24 h): 68.5 fL; Mono (24 h): 2.8%; Neu (24 h): 22.6%; PT (24 h): 16 s; Plat (24 h): 121.3 x10_4/uL; RBC (24 h): 578.6 x10_4/ul; Ret (24 h): 8.8%; WBC (24 h): 79 x10_2/uL; KIDNEY_L (24 h): 0.9 g; KIDNEY_R (24 h): 0.9 g; KIDNEY_TOTAL (24 h): 1.8 g; LIVER (24 h): 10.1 g; A/G (24 h): 0.9; ALP (24 h): 1714.2 IU/L; ALT (24 h): 45.2 IU/L; AST (24 h): 71.4 IU/L; BUN (24 h): 14.2 mg/dL; CRE (24 h): 0.2 mg/dL; Ca (24 h): 11.4 mg/dL; Cl (24 h): 106 meq/L; DBIL (24 h): 0.02 mg/dL; GLC (24 h): 177.6 mg/dL; IP (24 h): 8.2 mg/dL; K (24 h): 4.3 meq/L; LDH (24 h): 104.2 IU/L; Na (24 h): 142.8 meq/L; PL (24 h): 147.4 mg/dL; RALB (24 h): 2.6 g/dL; TBIL (24 h): 0.058 mg/dL; TC (24 h): 77.2 mg/dL; TG (24 h): 69.4 mg/dL; TP (24 h): 5.6 g/dL; gamma-GTP (24 h): 1 IU/L
